Measurements published in ChEMBL document CHEMBL3885881, “DrugMatrix”.

Organism: Rattus norvegicus
Assay: DrugMatrix - Regimen: Daily Repeat
Format: toxicity, organism-based, Sprague-Dawley
Set-up: regimen Daily Repeat, gender Male, age 6-8 weeks
Conditions: in vivo, po, route oral GAVAGE, vehicle .5 % CMC; for ABSOLUTE BASOPHIL / ABSOLUTE EOSINOPHIL / ABSOLUTE LYMPHOCYTE / ABSOLUTE MONOCYTE / ABSOLUTE SEGMENTED NEUTROPHIL / BASOPHIL / EOSINOPHIL / ERYTHROCYTE COUNT / HEMATOCRIT / HEMOGLOBIN / LEUKOCYTE COUNT / LYMPHOCYTE / MEAN CORPUSCULAR HEMOGLOBIN / MEAN CORPUSCULAR HEMOGLOBIN CONCENTRATION / MEAN CORPUSCULAR VOLUME / MONOCYTE / NEUTROPHIL / NUCLEATED RED BLOOD CELLS / PLATELET COUNT: tissue Blood; for ALANINE AMINOTRANSFERASE / ALBUMIN / ALKALINE PHOSPHATASE / ASPARTATE AMINOTRANSFERASE / BLOOD UREA NITROGEN / CARBON DIOXIDE / CHLORIDE / CHOLESTEROL / CREATINE PHOSPHOKINASE / CREATININE / GLUCOSE / LACTATE DEHYDROGENASE / LIPASE / PHOSPHORUS / POTASSIUM / SODIUM / TOTAL BILIRUBIN / TOTAL PROTEIN / URIC ACID: tissue Plasma
[1] = 0 mg/kg, 72 h, dose level Control, time 3 day
[2] = 0 mg/kg, 120 h, dose level Control, time 5 day
[3] = 16 mg/kg, 72 h, dose level Low, time 3 day

CCOC(=O)OC(C)OC1=C(C(=O)Nc2ccccn2)N(C)S(=O)(=O)c2ccccc21 (centres undefined) [AMPIROXICAM]
ABSOLUTE BASOPHIL [1]: 0 CELLS/uL
ABSOLUTE EOSINOPHIL [1]: 15.17 CELLS/uL
ABSOLUTE LYMPHOCYTE [1]: 10149.83 CELLS/uL
ABSOLUTE MONOCYTE [1]: 193.33 CELLS/uL
ABSOLUTE SEGMENTED NEUTROPHIL [1]: 1575 CELLS/uL
BASOPHIL [1]: 0%
EOSINOPHIL [1]: 0.17%
ERYTHROCYTE COUNT [1]: 5.53 x10E6/uL
HEMATOCRIT [1]: 34.7%
HEMOGLOBIN [1]: 12.78 G/DL
LEUKOCYTE COUNT [1]: 11.93 x10E3/uL
LYMPHOCYTE [1]: 85.5%
MEAN CORPUSCULAR HEMOGLOBIN [1]: 23.15 pg
MEAN CORPUSCULAR HEMOGLOBIN CONCENTRATION [1]: 36.9 G/DL
MEAN CORPUSCULAR VOLUME [1]: 62.82 fL
MONOCYTE [1]: 1.5%
NEUTROPHIL [1]: 12.83%
NUCLEATED RED BLOOD CELLS [1]: 0.5 /100WBC
PLATELET COUNT [1]: 994.17 x10E3/uL
ALANINE AMINOTRANSFERASE [1]: 48.17 u/L
ALBUMIN [1]: 4.37 G/DL
ALKALINE PHOSPHATASE [1]: 436.5 u/L
ASPARTATE AMINOTRANSFERASE [1]: 83.17 u/L
BLOOD UREA NITROGEN [1]: 14.67 mg/dL
CARBON DIOXIDE [1]: 30.83 mmol/L
CHLORIDE [1]: 99.17 MEQ/L
CHOLESTEROL [1]: 86.33 mg/dL
CREATINE PHOSPHOKINASE [1]: 243.33 u/L
CREATININE [1]: 0.25 mg/dL
GLUCOSE [1]: 158 mg/dL
LACTATE DEHYDROGENASE [1]: 262.33 u/L
LIPASE [1]: 11 u/L
PHOSPHORUS [1]: 12.07 mg/dL
POTASSIUM [1]: 6.52 MEQ/L
SODIUM [1]: 142.45 MEQ/L
TOTAL BILIRUBIN [1]: 0.17 mg/dL
TOTAL PROTEIN [1]: 6.25 G/DL
URIC ACID [1]: 1.42 mg/dL
ABSOLUTE BASOPHIL [2]: 0 CELLS/uL
ABSOLUTE EOSINOPHIL [2]: 0 CELLS/uL
ABSOLUTE LYMPHOCYTE [2]: 10076.67 CELLS/uL
ABSOLUTE MONOCYTE [2]: 124 CELLS/uL
ABSOLUTE SEGMENTED NEUTROPHIL [2]: 966 CELLS/uL
BASOPHIL [2]: 0%
EOSINOPHIL [2]: 0%
ERYTHROCYTE COUNT [2]: 5.57 x10E6/uL
HEMATOCRIT [2]: 33.37%
HEMOGLOBIN [2]: 12.73 G/DL
LEUKOCYTE COUNT [2]: 11.17 x10E3/uL
LYMPHOCYTE [2]: 90.33%
MEAN CORPUSCULAR HEMOGLOBIN [2]: 22.9 pg
MEAN CORPUSCULAR HEMOGLOBIN CONCENTRATION [2]: 38.18 G/DL
MEAN CORPUSCULAR VOLUME [2]: 59.97 fL
MONOCYTE [2]: 1%
NEUTROPHIL [2]: 8.67%
NUCLEATED RED BLOOD CELLS [2]: 0 /100WBC
PLATELET COUNT [2]: 1078 x10E3/uL
ALANINE AMINOTRANSFERASE [2]: 37.17 u/L
ALBUMIN [2]: 4.2 G/DL
ALKALINE PHOSPHATASE [2]: 322.17 u/L
ASPARTATE AMINOTRANSFERASE [2]: 67.67 u/L
BLOOD UREA NITROGEN [2]: 14 mg/dL
CARBON DIOXIDE [2]: 27.67 mmol/L
CHLORIDE [2]: 102.17 MEQ/L
CHOLESTEROL [2]: 67.67 mg/dL
CREATINE PHOSPHOKINASE [2]: 171.83 u/L
CREATININE [2]: 0.27 mg/dL
GLUCOSE [2]: 172 mg/dL
LACTATE DEHYDROGENASE [2]: 85.33 u/L
LIPASE [2]: 8.67 u/L
PHOSPHORUS [2]: 12 mg/dL
POTASSIUM [2]: 6.09 MEQ/L
SODIUM [2]: 144.82 MEQ/L
TOTAL BILIRUBIN [2]: 0.13 mg/dL
TOTAL PROTEIN [2]: 6.07 G/DL
URIC ACID [2]: 2.13 mg/dL
ABSOLUTE BASOPHIL [3]: 0 CELLS/uL
ABSOLUTE EOSINOPHIL [3]: 0 CELLS/uL
ABSOLUTE LYMPHOCYTE [3]: 13036.33 CELLS/uL
ABSOLUTE MONOCYTE [3]: 91.33 CELLS/uL
ABSOLUTE SEGMENTED NEUTROPHIL [3]: 1372.33 CELLS/uL
BASOPHIL [3]: 0%
EOSINOPHIL [3]: 0%
ERYTHROCYTE COUNT [3]: 5.36 x10E6/uL
HEMATOCRIT [3]: 33.57%
HEMOGLOBIN [3]: 12.5 G/DL
LEUKOCYTE COUNT [3]: 14.5 x10E3/uL
LYMPHOCYTE [3]: 89.33%
MEAN CORPUSCULAR HEMOGLOBIN [3]: 23.33 pg
MEAN CORPUSCULAR HEMOGLOBIN CONCENTRATION [3]: 37.23 G/DL
MEAN CORPUSCULAR VOLUME [3]: 62.67 fL
MONOCYTE [3]: 0.67%
NEUTROPHIL [3]: 10%
NUCLEATED RED BLOOD CELLS [3]: 0 /100WBC
PLATELET COUNT [3]: 1061.33 x10E3/uL
ALANINE AMINOTRANSFERASE [3]: 57.33 u/L
ALBUMIN [3]: 4.3 G/DL
ALKALINE PHOSPHATASE [3]: 431 u/L
ASPARTATE AMINOTRANSFERASE [3]: 100.67 u/L
BLOOD UREA NITROGEN [3]: 12.67 mg/dL
CARBON DIOXIDE [3]: 32.33 mmol/L
CHLORIDE [3]: 101.33 MEQ/L
CHOLESTEROL [3]: 86.33 mg/dL
CREATINE PHOSPHOKINASE [3]: 214.33 u/L
CREATININE [3]: 0.25 mg/dL
GLUCOSE [3]: 155.33 mg/dL
LACTATE DEHYDROGENASE [3]: 113.33 u/L
LIPASE [3]: 11.67 u/L
PHOSPHORUS [3]: 11.83 mg/dL
POTASSIUM [3]: 6.74 MEQ/L
SODIUM [3]: 145.43 MEQ/L
TOTAL BILIRUBIN [3]: 0.13 mg/dL
TOTAL PROTEIN [3]: 6.13 G/DL
URIC ACID [3]: 1.73 mg/dL
